Reference: paper PMC12292302, “Revealing the Improving Effect and Molecular Mechanism of L-Clausenamide in Combating the Acute Lung Injury: Insights from Network Pharmacology, Molecular Docking, and In Vitro Validation” (Biology, 2025)

Molecular target: AKT1 (RAC-alpha serine/threonine-protein kinase) (Homo sapiens, UniProt P31749)
Assay: SPR (Biacore 8K+, CM7 chip, purchased AKT1 protein MCE HY-P74421)
Assay type: binding

AKT1 (RAC-alpha serine/threonine-protein kinase), sequence (P31749 whole entry): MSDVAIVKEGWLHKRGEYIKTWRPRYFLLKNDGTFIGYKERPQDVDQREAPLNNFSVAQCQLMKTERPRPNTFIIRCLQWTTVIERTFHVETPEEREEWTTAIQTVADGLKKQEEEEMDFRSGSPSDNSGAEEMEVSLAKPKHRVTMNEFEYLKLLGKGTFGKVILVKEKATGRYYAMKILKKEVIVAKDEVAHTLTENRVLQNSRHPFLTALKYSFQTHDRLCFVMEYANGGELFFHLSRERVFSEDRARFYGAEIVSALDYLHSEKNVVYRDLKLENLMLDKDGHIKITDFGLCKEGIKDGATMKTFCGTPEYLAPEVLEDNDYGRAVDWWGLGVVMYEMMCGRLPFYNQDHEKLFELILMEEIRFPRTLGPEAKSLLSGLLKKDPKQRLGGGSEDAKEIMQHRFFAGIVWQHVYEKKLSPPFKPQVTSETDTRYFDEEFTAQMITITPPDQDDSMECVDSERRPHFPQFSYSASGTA

CN1C(=O)[C@@H](O)[C@H](c2ccccc2)[C@@H]1[C@@H](O)c1ccccc1 [L-Clausenamide]
Kd: 10.3 µM
